# Assays:
# [1] = tested on: Human Cord Blood CD34+ Cells; test: FACS analysis of proliferation and differentiation of cord blood CD34+ cells cultured with IL3, G-CSF and Kit-ligand; format: cell-based; details: for CD11b+ Cell Population / CD34+CD38+ Cell Population / CD34+CD38− Cell Population: 7 days
# Procedure: CB CD34+ cells were initiated at 4×10^4 cells/ml in a 24-well plate in 20% FCS IMDM (fetal calf serum/Iscove's Modified Dulbecco's Medium) supplemented with cytokines (1 L3, GCSF and Kit-ligand) (R&D Systems, Inc.). Thalidomide (Thal), ACTIMID™ or REVIMID™ were included in the culture at three different concentrations: 5 μg/ml, 1 μg/ml and 0.3 μg/ml. The same volumes of DMSO were used as controls. A negative control without, any compound was also used (indicated by “none” in FIGS. 3-7). Cells were cultured at 37° C. and 5% CO2 in a humidified incubator for 7 days. Cells were then harvested from each well.
# The total cell number from each well was determined by counting in a CELL-DYN® 1700 (Abbott Diagnostics) and the expression of CXCR4, CD45, CD34, CD38, CD 1 lb and Gly-A expression was analyzed by FACS (fluorescence-activated cell sorting) staining (FIGS. 3-7).
# CB cells from two different donors (CB2276 and CB2417) were cultured, assayed and analyzed separately (Table 1).
# [2] = tested on: human cord blood CD45+ cells; test: Flow cytograms of cord blood CD45+ cells cultured 14 days with IL3, IL6, G-CSF, Epo and KL; format: cell-based; details: 5 μg/ml
# Procedure: (§1) FIGS. 9(A-F). Flow cytograms. […] Cord blood CD45+ cells were cultured for 14 days with cytokines IL3, IL6, G-CSF, Epo and KL. Percentages indicated on each cytogram indicate the percentage of the cell population expressing a particular combination of markers. A. Control, immunoglobulin (Ig). B. Control, no compound added. C. DMSO (5 μg/ml). D. Thal (5 μg/ml). E. ACTIMID™ (5 μg/ml). F. REVIMID™ (5 μg/ml). X-axis: relative intensity of CD38 (FL1-H) staining. Y-axis: relative intensity of CD19 (FL2-H) staining. See Section 6.3 for details.
# as §1, with “10(A-F).” for “9(A-F).”, “CXCR5” for “CD38”, “CD34” for “CD19”
# [3] = tested on: Bone marrow and cord blood CD34+ progenitor cells; test: Differentiation of CD34+ progenitor cells into dendritic cells, cell surface phenotype by flow cytometry; format: cell-based, human; set-up: key to Cell Population CD15+ / Cell Population CD34+ CD38− / Cell Population CD34− CD38+ / Cell Population CD1a+ CD14− / Cell Population CD1a− CD14+: ↑: up arrow indicates an increase in the cell population; ↓: down arrow indicates a decrease
# Procedure: Bone marrow and cord blood CD34^+ progenitor cells were obtained from Clonetics and cultured in Iscove's MDM with BIT 95000 (StemCell Technologies) in the presence of SCF, Flt-3L, GM-CSF and TNF-α for 6 days, and then in the presence of GM-CSF and TNF-α for 6 additional days.
# Analysis of cell surface phenotype: Cells were processed for double staining (30 min at 4° C.) at day 6 and day 12 using FITC and PE conjugated mAbs. Antibodies used were from BD Pharmingen: CD34 (PE), CD38 (FITC), CD33 (FITC), CD1a (FITC), CD86 (PE), CD14 (PE), CD83 (PE), CD54 (PE), CD11b (PE), CD11c (PE), HLA-DR (PE), CD15 (FITC), and CD133 (PE) from Miltenyi. Fluorescence analysis was performed on a FACScan flow cytometer after acquisition of 10,000 events (Coulter). Results presented are representative of four independent experiments.
# The methodology described above, i.e., the examination of the effect of IMiDs such as ACTIMID™ on the differentiation on early progenitor cells, such as CD34^+ cells, can be applied to any compound of interest, the effect of which on differentiation is desired to be known. As an example of the extension of this assay method to other compounds, we compared the effect of retinoic acid (ATRA) and aspirin to that of ACTIMID™ on the differentiation of CD34^+ cells toward the DC lineage versus the control (DMSO-treated) cells. Retinoic acid was studied because of its known effect on cellular proliferation and differentiation, its therapeutic use in some cancer, and its known teratogenic effect. Conversely, we studied the effect of aspirin because it is a commonly-used anti-inflammatory drug with no immunomodulatory properties. The results at day 6 of CD34^+ progenitors cells cultured in the presence of SCF, Flt-3L, GM-CSF and TNF-α, with or without compound for a period of 6 days, are presented below in Table 2 (up arrow indicates an increase in the cell population; down arrow indicates a decrease).
# [4] = Day 12, compound from day 6 to day 12
# [5] = day 6, SCF, Flt-3L, GM-CSF and TNF-α, versus DMSO-treated control
smiles,measurement,setting,value
"Nc1cccc2c1C(=O)N(C1CCC(=O)NC1=O)C2=O (stereo not shown) [ACTIMID™, 4-(Amino)-2-(2,6-dioxo(3-piperidyl))-isoindoline-1,3-dione]",up-regulation (increased proliferation) of CD34+ cells,[1]; CB2276 and CB2417 cultures,up-regulation
same,expression of CXCR4,[1]; FACS analysis of surface proteins,inhibitory effect
same,yield of cells,"[1]; IL-3, KL and G-CSF, compared with the DMSO control",slightly higher number of cells
same,effect on the proliferation of CD34+ cells,"[1]; IL-3, KL and G-CSF, compared with the negative control (none)",do not have a significant effect
same,CD11b+ Cell Population,"[1]; donor CB2276, 0.3 μg/ml",6.9%
same,CD34+CD38+ Cell Population,"[1]; donor CB2276, 0.3 μg/ml",0.2
same,CD34+CD38− Cell Population,"[1]; donor CB2276, 0.3 μg/ml",5.9
same,CD11b+ Cell Population,"[1]; donor CB2276, 1 μg/ml",3.8%
same,CD34+CD38+ Cell Population,"[1]; donor CB2276, 1 μg/ml",0.2
same,CD34+CD38− Cell Population,"[1]; donor CB2276, 1 μg/ml",15.0
same,CD11b+ Cell Population,"[1]; donor CB2276, 5 μg/ml",1.6%
same,CD34+CD38+ Cell Population,"[1]; donor CB2276, 5 μg/ml",0.2
same,CD34+CD38− Cell Population,"[1]; donor CB2276, 5 μg/ml",17.3
same,CD11b+ Cell Population,"[1]; donor CB2417, 0.3 μg/ml",8.4%
same,CD34+CD38+ Cell Population,"[1]; donor CB2417, 0.3 μg/ml",0.2
same,CD34+CD38− Cell Population,"[1]; donor CB2417, 0.3 μg/ml",5.9
same,CD11b+ Cell Population,"[1]; donor CB2417, 1 μg/ml",3.9%
same,CD34+CD38+ Cell Population,"[1]; donor CB2417, 1 μg/ml",0.8
same,CD34+CD38− Cell Population,"[1]; donor CB2417, 1 μg/ml",12.0
same,CD11b+ Cell Population,"[1]; donor CB2417, 5 μg/ml",2.5%
same,CD34+CD38+ Cell Population,"[1]; donor CB2417, 5 μg/ml",0.1
same,CD34+CD38− Cell Population,"[1]; donor CB2417, 5 μg/ml",14.7
same,CD38 status of the majority of CD34+ and CD34− cells,[1]; treated cell populations,CD38−
same,level of CD11b expression by mean immunofluorescence (MIF),[1]; treated cells,decreased
same,differentiation into B cells (CD19/CD38 staining),[2]; FIG. 9,minor suppressive effects
same,repression of CXCR5 produced by exposure to DMSO,[2]; FIG. 10,overcomes the repression
same,toxic effects on CD34+ cells,[3],no toxic effects
same,CD34+CD38− population,"[3]; 1 μM, day 1 to day 12",increased
same,acquisition of the DC phenotype,"[3]; 1 μM, day 1 to day 12",inhibited
same,"expression of co-stimulatory molecules (CD86, CD80) at day 12","[3]; 1 μM, day 1 to day 12",decreased expression
same,expression of the CD54bright population,"[3]; 1 μM, day 12",decreased expression
same,expression of the CD54dim population,"[3]; 1 μM, day 12",increased expression
same,generation of CD14+CD1a− cells,"[3]; 1 μM, from day 1",decreased
same,generation of CD1a+ cells at day 6,"[3]; 1 μM, from day 1, particularly CD86+CD1a+ cells",almost completely prevented
same,expression of the CD15 surface molecule (granulocytic marker),"[3]; 12 days in the presence of compound, FIG. 22",increased
same,cells' ability to proliferate,[3]; CD34+ cells,not to impair
same,CD1a+,[3]; [4],11.5%
same,CD14+,[3]; [4],8.0%
same,CD80+,[3]; [4],13.8%
same,CD86+,[3]; [4],18.5%
same,CD11c+CD15− population,[3]; FIG. 19B,decrease
same,CD11c−CD15+ granulocytic population,[3]; FIG. 19B,increase
same,Cell Population CD1a+ CD14−,[3]; [5],↓
same,Cell Population CD1a− CD14+,[3]; [5],↓
same,Cell Population CD15+,[3]; [5],↑
same,Cell Population CD34+ CD38−,[3]; [5],↑
same,Cell Population CD34− CD38+,[3]; [5],↓
same,concentration at which increase in CD34+CD38− cells and block in myeloid DC progenitors reached a maximum,"[3]; dose dependant, day 0 to day 6, FIG. 17",1 µM
same,culture time with compound needed for interference with the CD34 differentiation pathway,"[3]; effect reversible, FIG. 18",at least 3 days
same,expression of CD133,[3]; multiple doses,increases
same,increase in the CD34+ population,[3]; multiple doses between days 0 and 6,intensified the increase
same,expression of HLA-DR molecules,"[3]; treated CD34+ progenitors, day 12",reduced

# — patent US8889411B2, “Modulation of stem and progenitor cell differentiation, assays, and uses thereof” (Anthrogenesis Corporation, priority 2002, dated 2014)
